Measurements reported in patent US20240287108A1, “nSMASE2 INHIBITOR PRODRUGS WITH ENHANCED ORAL AND BRAIN EXPOSURES” (The Johns Hopkins University, priority 2021, published 2024).
Converted amounts (≈) assume the structure as drawn. Where two headings read alike, the source gives them in different places.

Assays:
[1] = single time-point (2 h) oral pharmacokinetic screening in mice; format: in vivo, mouse; settings: single time point PK, oral 10 mg/kg DPTIP equivalent
Experimental: (§1) All PK studies in mice were conducted according to protocols approved by the Animal Care and Use Committee at Johns Hopkins University. Male CD-1 mice between 25 and 30 g were obtained from Harlan and maintained on a 12 h light-dark cycle with ad libitum access to food and water. […] All of the formulations were freshly prepared prior to the dosing. The mice were sacrificed at specified time points (either 2 h or 0.25, 0.5, 1, 2, 4, 6, and 8 h) post drug administration. For the collection of plasma and brain tissue, animals were euthanized with CO2, and blood samples were collected in heparinized microtubes by cardiac puncture. Brains were dissected and immediately flash frozen (−80° C.) Blood samples were spun at 2000 g for 15 min, and plasma was removed and stored at −80° C. until LC-MS/MS analysis. Prior to extraction, frozen samples were thawed on ice.
Brain tissues were diluted 1:5 w/v with acetonitrile containing losartan (0.5 μm) and homogenized, followed by vortex-mixing and centrifugation at 10,000 g for 10 min at 4° C. […] Plasma concentrations (nmol/ml) as well as brain tissue concentrations (nmol/g) were determined and plots of mean plasma concentration versus time were constructed. Non-compartmental analysis modules in Phoenix WinNonlin version 7.0 (Certara USA, Inc., Princeton, NJ) were used to quantify exposures (AUC0-t).

[2] = solubility of P18 in water and in Soluplus®/Labrasol® micelle formulation; format: physicochemical
Excerpt: In contrast, the solubility of the prodrugs, e.g., P18 in the micelle formulation were improved as presented below.

[3] = in vitro stability in CES1−/− mouse plasma; format: in vitro ADME; settings: CES1−/− mouse plasma, 10 μM, 37° C.
Experimental: All synthesized prodrugs were next screened for in vitro stability in carboxylesterase 1 knockout (CES1^−/−) mouse plasma, as well as CES1^−/− mouse brain and liver homogenates (Table 2-1). We have previously reported that CES1^−/− mouse model recapitulates human prodrug metabolism. Tenora et al., 2019.
(§2) Zimmermann et al., 2018. For the tissue homogenates, washed tissues were diluted 10-fold in 0.1 M potassium phosphate buffer and homogenized using a probe sonicator. To evaluate the stability of the intact prodrug over time, each of the crude homogenates and plasma were aliquoted to 1 mL and then spiked with a final assay concentration of 10 μM of each prodrug followed by incubation in an orbital shaker at 37° C. for 1 h (in triplicate). Sample from each incubation at predetermined time points (0 min, and 1 h) was quenched with three volumes of acetonitrile containing the internal standard (IS; losartan: 0.5 μm). Samples were vortex-mixed for 30 secs and centrifuged at 10,000×g for 10 min at 4° C. Disappearance of intact prodrugs from these samples were performed on a Dionex ultra-high-performance LC system coupled with Q Exactive Focus orbitrap mass spectrometer (Thermo Fisher Scientific Inc., Waltham MA). The separation of analytes was achieved using the Agilent Eclipse Plus column (100×2.1 mm i.d.; maintained at 35° C.) packed with a 1.8 μm C18 stationary phase. The mobile phase consisted of 0.1% formic acid in water and 0.1% formic acid in acetonitrile. Pumps were operated at a flow rate of 0.4 mL/min for 9 min using gradient elution. The mass spectrometer controlled by Xcalibur software 4.0.27.13 (Thermo Scientific) was operated with a heated electrospray ionization (HESI) ion source in positive ionization mode. Quantification of the prodrugs were performed in the full-scan mode (from m/z 50 to 1600) by comparing t=0 samples with t=60 min samples.

[4] = in vitro stability in CES1−/− mouse brain homogenates; format: in vitro ADME; settings: CES1−/− mouse brain homogenate, 10 μM, 37° C.
Experimental: (§3) All synthesized prodrugs were next screened for in vitro stability in carboxylesterase 1 knockout (CES1^−/−) mouse plasma, as well as CES1^−/− mouse brain and liver homogenates (Table 2-1). We have previously reported that CES1^−/− mouse model recapitulates human prodrug metabolism.
as §2, with “For” for “Zimmermann et al., 2018. For”, “The separation of analytes was achieved using the Agilent Eclipse Plus column (100×2.1 mm i.d.; maintained at 35° C.) packed with a 1.8 μm C18 stationary phase.” left out

[5] = time-dependent oral pharmacokinetics in mice; format: in vivo, mouse
Experimental: As described earlier, we identified P1 and P18 as the most promising candidates for time dependent PK.
as §1
Brain tissues were diluted 1:5 w/v with acetonitrile containing losartan (0.5 μm) and homogenized, followed by vortex-mixing and centrifugation at 10,000 g for 10 min at 4° C. A 50 μL aliquot of the supernatant were diluted with 50 uL of water and transferred to 250 μL polypropylene autosampler vials sealed with teflon caps. Then, 2 μL of the sample were injected into the LC/MS/MS system for analysis. Chromatographic analysis was performed using an Accela ultra-high-performance system consisting of an analytical pump and an autosampler coupled with a TSQ Vantage mass spectrometer. […] The mobile phase consisted of 0.1% formic acid in acetonitrile and 0.1% formic acid in water with gradient elution were used. […] Plasma concentrations (nmol/ml) as well as brain tissue concentrations (nmol/g) were determined and plots of mean plasma concentration versus time were constructed. Non-compartmental analysis modules in Phoenix WinNonlin version 7.0 (Certara USA, Inc., Princeton, NJ) were used to quantify exposures (AUC0-t).

[6] = in vitro stability in CES1−/− mouse liver homogenates; format: in vitro ADME; settings: CES1−/− mouse liver homogenate, 10 μM, 37° C.
Experimental: as §3
as §2, with “For” for “Zimmermann et al., 2018. For”, “The separation of analytes was achieved using the Agilent Eclipse Plus column (100×2.1 mm i.d.; maintained at 35° C.) packed with a 1.8 μm C18 stationary phase.” left out

CCC1CC(N2CCCCC2)CC(CC)N1C(=O)Oc1c(OC)cc(-c2nc(-c3ccccc3)c(-c3cccs3)[nH]2)cc1OC (stereo not drawn) [Compound P18, 2,6-Dimethoxy-4-(5-phenyl-4-(thiophen-2-yl)-1H-imidazol-2-yl)phenyl 2′,6′-diethyl-[1,4′-bipiperidine]-1′-carboxylate]
improvement of brain and plasma levels of DPTIP and/or its brain penetration index compared with DPTIP [1]: highest improvement | solubility ([2]; Labrasol micelles in water, aqueous with cosolvent or surfactant or cyclodextrin, solid dispersion in Labrasol®, hydrated with water, read-out: solubility in micelle formulation): 1700 µg/mL (≈ 2700 µM) | solubility ([2]; Soluplus micelles in water, aqueous with cosolvent or surfactant or cyclodextrin, solid dispersion in Soluplus®, hydrated with water, read-out: solubility in micelle formulation): 1700 µg/mL (≈ 2700 µM) | solubility ([2]; water, read-out: solubility in water): < 500 µg/mL | Stability in mouse (% remaining at 1h) Mean + Std Error, Plasma [3]: 92 ± 7% | Stability in mouse (% remaining at 1h) Mean + Std Error, Brain [4]: 100 ± 1% | plasma exposure of the intact compound (AUC0-t) ([5]; oral 10 mg/kg DPTIP equivalent): 0.969 µM·h | conversion of prodrug to DPTIP in vivo ([5]; oral 10 mg/kg DPTIP equivalent (P18: in the brain)): > 50% | Stability in mouse (% remaining at 1h) Mean + Std Error, Liver [6]: 100 ± 3%
